Source: patent US9918968B2, “Rapamycin analogs targeting proteasome function in the treatment of cancer” (THE BOARD OF REGENTS OF THE UNIVERSITY OF TEXAS SYSTEM, priority 2013, dated 2018)
Read-outs that look alike come from different tables or passages of the source.

Experiments:
transplanted tumor = details: cited from earlier work; for proteasome inhibition in brain tissue: any time point
[1] = molecular target: chymotrypsin-like proteasome activity (Homo sapiens, UniProt P28074); details: read-out: IC50, chymotrypsin-like proteasome inhibition; cited from earlier work
[2] = tested on: RPMI8226 multiple myeloma cancer; details: read-out: IC50, proliferation; cited from earlier work
[3] = tested on: MM xenograft tumors (LAGκ-1A); details: 14 d, cited from earlier work
PC3 prostate cancer = details: read-out: IC50, proliferation; cited from earlier work
[4] = tested on: HS-Sultan anaplastic non-Hodgkin lymphoma; details: read-out: IC50, proliferation; cited from earlier work
H460 = details: read-out: IC50, proliferation; cited from earlier work
[5] = tested on: A2780 ovarian cancer cells; details: read-out: IC50, proliferation; cited from earlier work
LoVo colon cancer = details: read-out: IC50, proliferation; cited from earlier work
[6] = tested on: HeLa.S3 cervical carcinoma cells; experiment: Live/dead cell count, HeLa.S3 cells; format: cell-based, human; details: 48 hrs
Experimental: (§1) Culture Collection; ATCC) were cultured according to ATCC specifications: HeLa.S3 cervical adenocarcinoma, MCF7 breast adenocarcinoma, MDA-MB-231 breast adenocarcinoma (representing triple negative breast cancer), and RPMI 8226 myeloma. The cells were grown in 24 or 12-well cell culture plates. When the cells reached about 60% confluency (surface-growing HeLa.S3,MCF7 and MDA-MB-231) or a density of about 7×10^5 (suspension-growing RPMI 8226), the inhibitors dissolved in DMSO or the solvent (DMSO) diluted in respective culture medium were added and the cells were further cultured for additional 48 hours. […] The final concentration of the solvent was 1% (vol/vol). The number of live and dead cells after the treatment was approximated with calcein AM and ethidium homodimer (LiveDead test, Invitrogen) according to manufacturer's protocol, or by a Trypan Blue exclusion assay. In short, the cells after the treatment were washed three times with PBS and overlaid (surface-growing) or mixed (suspension-growing) with 4 microM calcein AM and 2 microM ethidium homodimer in PBS. Fluorescence of calcein and DNA-bound ethidium homodimer was measured with Fluoroskan Ascent plate reader, at 485 nm (excitation)/538 nm (emission) and 530 nm/619 nm, respectively. The cell counts were approximated using standard curves of live and digitonin-killed cells prepared for each strain. Alternatively, after cell treatment the medium was removed, the surface growing cells were overlaid with Trypan Blue solution, and the colorless (live) and blue-colored (dead) cells were counted under the inverted microscope.

[7] = tested on: MCF7 breast carcinoma cells; experiment: Live/dead cell count, MCF7 cells; format: cell-based, human; details: 100 nM bortezomib
Experimental: as §1, with “In short, the cells after the treatment were washed three times with PBS and overlaid (surface-growing) or mixed (suspension-growing) with 4 microM calcein AM and 2 microM ethidium homodimer in PBS.” left out, “The cell counts were approximated using standard curves of live and digitonin-killed cells prepared for each strain.” left out

[8] = tested on: MDA-MB-231 (triple-negative breast cancer) cells; experiment: Viability/growth of MDA-MB-231 cells; format: cell-based, human; details: Homo sapiens, MDA-MB-231; 24 hours, drug alone; read-out: EC50 (concentration required to exclude 50% of cells)
Experimental: The cells were grown in 24 or 12-well cell culture plates. […] The final concentration of the solvent was 1% (vol/vol). The number of live and dead cells after the treatment was approximated with calcein AM and ethidium homodimer (LiveDead test, Invitrogen) according to manufacturer's protocol, or by a Trypan Blue exclusion assay. In short, the cells after the treatment were washed three times with PBS and overlaid (surface-growing) or mixed (suspension-growing) with 4 microM calcein AM and 2 microM ethidium homodimer in PBS. […] The cell counts were approximated using standard curves of live and digitonin-killed cells prepared for each strain. Alternatively, after cell treatment the medium was removed, the surface growing cells were overlaid with Trypan Blue solution, and the colorless (live) and blue-colored (dead) cells were counted under the inverted microscope.

[9] = tested on: T1, human 20S proteasome, ChT-L peptidase; experiment: ChT-L peptidase activity of purified human 20S proteasome (Suc-LLVY-MCA); format: biochemical
T1 construct: purchased Enzo LifeSciences
Experimental: Human purified proteasome complexes were purchased from Enzo LifeSciences or Boston Biochemicals (19S complex). BODIPY-casein (Invitrogen/Molecular Probes) was used as a model protein substrate, with increasing fluorescence of BODIPY labeled peptide products of degradation monitored for up to 8 hours at 37° C. The peptidase activity of the enzyme was measured as arbitrary intensity units of the released fluorescent group 7-amino-4-methylcoumarin (AMC) from peptide substrates, as described. […] Proteasome substrates, rapamycin, its derivatives, and competing peptides were stocked in DMSO and diluted 100-fold in the reaction mixtures. The Rpt5 and PA200 C-terminal peptides were synthesized in the Departmental Peptide Synthesis Core using the standard SPPS chemistry. To activate the latent 20S proteasome, 0.005% (final concentration) of sodium dodecyl sulfate (SDS) was used. […] The fluorescence of products was monitored every 2 minutes with a Fluoroskan Ascent plate reader. Reaction rates were calculated from smoothed linear segment of kinetic curves using OriginPro 8.6 (OriginLabs, Northampton, Mass.). For the determination of an inhibition type, at least six distinct substrate concentrations and two inhibitor concentrations were used. The kinetic parameters of inhibition were analyzed in terms of the Michaelis-Menten formalism using the enzyme kinetic module of SigmaPlot v.12 (Systat Software, Inc, San Jose, Calif.) to perform the respective calculations. […]
The in vitro assay for testing the ChT-L peptidase activity of the purified human 20S proteasome was performed as described above.

RPMI 8226 myeloma cells = experiment: Live/dead cell count, RPMI 8226 myeloma cells; format: cell-based, human; details: 5 nM, 48 hrs
Experimental: as §1

CC(C)C[C@H](NC(=O)[C@@H](NC(=O)c1cccc(-c2ccccc2)n1)[C@@H](C)O)B(O)O [Delanzomib]
proteasome inhibition in brain tissue (transplanted tumor): No proteasome inhibition is detected
maximum apoptotic signal versus bortezomib (transplanted tumor; caspase-3 and 7 activity in tumor, equiactive doses): 2.5 fold
IC50 [1]: 3.8 nM
IC50 [2]: 5.6 nM
tumors smaller than control ([3]; twice weekly 3 mg/kg i.v.): approximately 8 times
tumors smaller than control ([3]; twice weekly 10 mg/kg orally): ~12 times
IC50 (PC3 prostate cancer): 22.2 nM
IC50 [4]: 8.2 nM
IC50 (H460): 34.2 nM
IC50 [5]: 13.7 nM
IC50 (LoVo colon cancer): 11.3 nM

CC(C)C[C@H](NC(=O)[C@H](Cc1ccccc1)NC(=O)c1cnccn1)B(O)O [bortezomib]
proteasome inhibition in brain tissue (transplanted tumor): No proteasome inhibition is detected
incidence of CR (complete tumor regression) (transplanted tumor; at MTD of 1.2 mg/kg intravenously): 50%
maximally tolerated dose (MTD) (transplanted tumor; intravenously): 1.2 mg/kg
dead cells, of total cell count ([6]; up to 100 nM bortezomib): up to 16%
changes in cell proliferation ([6]; up to 100 nM): did not induce significant changes
live cell count, of the control [7]: about 53%
EC50 [8]: 745 nM
remaining ChT-L activity ([9]; 5 nM BZ alone): 83%
remaining ChT-L activity ([9]; 50 nM bortezomib alone): 68%
dead cells (RPMI 8226 myeloma cells): 18%
remaining live cells (RPMI 8226 myeloma cells; 100% = live cells in DMSO control): 10%
